Measured values from US20100286193A1, “Novel Azabicyclo[3.2.1]Oct-2-Ene Derivatives and Their Use as Monoamine Neurotransmitter Re-Uptake Inhibitors” (priority 2005, published 2010).
Counter-ions that a name gives are not always drawn.

What was measured:
[1] = target: T1, serotonine (5-HT) reuptake in synaptosomes (Rattus norvegicus, UniProt P31652); assay: Inhibition of serotonin reuptake in synaptosomes; type: biochemical; details: 3H-5-HT, as described in WO 97/16451, read-out: 5-HT-uptake IC50
T1 construct: in synaptosomes as described in WO 97/16451; from tissue
T1 sequence (P31652 whole entry): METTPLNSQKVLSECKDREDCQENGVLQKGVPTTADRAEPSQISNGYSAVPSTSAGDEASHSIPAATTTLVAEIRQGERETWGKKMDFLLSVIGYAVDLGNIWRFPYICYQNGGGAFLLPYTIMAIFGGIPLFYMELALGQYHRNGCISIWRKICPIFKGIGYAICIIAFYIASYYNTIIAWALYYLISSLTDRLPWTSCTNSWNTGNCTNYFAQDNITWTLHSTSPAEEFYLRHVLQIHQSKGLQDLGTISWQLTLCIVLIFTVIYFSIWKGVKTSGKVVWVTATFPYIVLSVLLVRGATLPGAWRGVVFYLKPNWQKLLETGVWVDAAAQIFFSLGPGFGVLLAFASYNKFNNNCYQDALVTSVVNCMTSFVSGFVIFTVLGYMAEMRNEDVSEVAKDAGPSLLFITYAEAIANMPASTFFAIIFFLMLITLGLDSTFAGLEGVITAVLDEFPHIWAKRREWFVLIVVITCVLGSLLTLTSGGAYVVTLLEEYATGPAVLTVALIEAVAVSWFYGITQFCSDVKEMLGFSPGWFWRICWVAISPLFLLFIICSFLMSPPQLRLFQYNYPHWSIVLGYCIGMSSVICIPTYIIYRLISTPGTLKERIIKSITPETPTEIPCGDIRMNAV

[2] = target: T2, noradrenaline (NA) reuptake in synaptosomes (Rattus norvegicus, UniProt Q63380); assay: Inhibition of noradrenaline reuptake in synaptosomes; type: biochemical; details: 3H-NA, as described in WO 97/16451, read-out: NA-uptake IC50
T2 construct: in synaptosomes as described in WO 97/16451; from tissue
T2 sequence (Q63380 1-617): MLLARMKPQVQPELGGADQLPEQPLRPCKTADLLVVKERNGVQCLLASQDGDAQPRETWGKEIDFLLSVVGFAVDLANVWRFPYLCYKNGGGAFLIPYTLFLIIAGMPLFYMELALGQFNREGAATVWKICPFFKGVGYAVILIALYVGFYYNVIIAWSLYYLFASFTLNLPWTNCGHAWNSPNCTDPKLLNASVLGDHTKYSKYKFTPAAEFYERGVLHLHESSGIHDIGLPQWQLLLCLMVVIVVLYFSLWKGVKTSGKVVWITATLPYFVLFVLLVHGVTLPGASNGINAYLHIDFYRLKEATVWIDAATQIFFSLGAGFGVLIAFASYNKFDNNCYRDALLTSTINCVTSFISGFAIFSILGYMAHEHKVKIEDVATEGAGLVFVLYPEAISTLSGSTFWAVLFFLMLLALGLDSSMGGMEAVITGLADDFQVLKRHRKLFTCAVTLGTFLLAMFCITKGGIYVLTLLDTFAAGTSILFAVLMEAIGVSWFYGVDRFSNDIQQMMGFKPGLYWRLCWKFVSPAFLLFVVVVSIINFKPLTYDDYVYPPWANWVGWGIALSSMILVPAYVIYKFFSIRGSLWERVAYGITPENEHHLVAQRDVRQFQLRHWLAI

[3] = target: T3, dopamine (DA) reuptake in synaptosomes (Rattus norvegicus, UniProt P23977); assay: Inhibition of dopamine reuptake in synaptosomes; type: biochemical; details: 3H-DA, as described in WO 97/16451, read-out: DA-uptake IC50
T3 construct: in synaptosomes as described in WO 97/16451; from tissue
T3 sequence (P23977 whole entry): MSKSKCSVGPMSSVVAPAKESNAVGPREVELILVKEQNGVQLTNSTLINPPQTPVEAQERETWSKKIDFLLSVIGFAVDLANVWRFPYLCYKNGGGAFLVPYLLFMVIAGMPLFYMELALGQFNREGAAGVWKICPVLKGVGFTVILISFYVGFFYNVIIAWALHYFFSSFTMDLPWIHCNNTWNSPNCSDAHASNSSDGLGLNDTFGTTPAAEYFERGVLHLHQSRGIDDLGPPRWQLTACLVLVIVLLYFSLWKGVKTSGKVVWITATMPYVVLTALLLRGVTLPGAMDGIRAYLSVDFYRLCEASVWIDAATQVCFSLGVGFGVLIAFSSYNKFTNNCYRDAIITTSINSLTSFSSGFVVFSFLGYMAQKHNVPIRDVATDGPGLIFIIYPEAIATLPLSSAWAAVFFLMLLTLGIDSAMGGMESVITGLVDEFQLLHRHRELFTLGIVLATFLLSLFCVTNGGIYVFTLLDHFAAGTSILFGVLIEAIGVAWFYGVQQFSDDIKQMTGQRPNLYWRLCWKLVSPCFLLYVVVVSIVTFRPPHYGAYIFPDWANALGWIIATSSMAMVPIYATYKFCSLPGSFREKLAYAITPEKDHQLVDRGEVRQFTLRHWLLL

Compound	IC50 [1]	IC50 [2]	IC50 [3]	melting point
Cc1ccc(C2=CC3CCC(C2)N3)cc1Br (racemic) [(±)-3-(3-Bromo-4-methylphenyl)-8-H-8-azabicyclo[3.2.1]oct-2-ene hydrochloric acid salt]	1.4 nM	15 nM	13 nM	–
Cc1cc(C2=CC3CCC(C2)N3)ccc1Cl (single isomer, unassigned; (+)) (as salt: tartaric acid salt) [(+)-3-(4-Chloro-3-methylphenyl)-8-H-8-azabicyclo[3.2.1]oct-2-ene D-tartaric acid salt]	–	–	–	164 to 177 °C
Cc1ccc(C2=CC3CCC(C2)N3)cc1Cl (single isomer, unassigned; (-)) [(−)-3-(3-Chloro-4-methylphenyl)-8-H-8-azabicyclo[3.2.1]oct-2-ene L-tartaric acid salt]	1.8 nM	6.8 nM	140 nM	–
Cc1ccc(C2=CC3CCC(C2)N3)cc1Cl (single isomer, unassigned; (-)) (as salt: tartaric acid salt) [(−)-3-(3-Chloro-4-methylphenyl)-8-H-8-azabicyclo[3.2.1]oct-2-ene L-tartaric acid salt]	–	–	–	156.3 to 161.5 °C
Cc1cc(C2=CC3CCC(C2)N3)ccc1Cl (single isomer, unassigned; (+)) [(+)-3-(4-Chloro-3-methylphenyl)-8-H-8-azabicyclo[3.2.1]oct-2-ene D-tartaric acid salt]	2.3 nM	8.2 nM	110 nM	–
